Test results taken from patent US6888001B2, “Pyridyl ethers and thioethers as ligands for nicotinic acetylcholine receptor and its therapeutic application” (priority 1998, dated 2005).
Like-named read-outs stand apart in the source and are kept apart here.

Columns and labels:
[1] = target: T1, α4β2 nAChR (Rattus norvegicus, UniProt P09483+P12390); experiment: Binding of 3H-cytisine to α4β2 nAChR, crude synaptic membranes; conditions: for inhibition at 10 µM: read-out: α4β2 % Inhibition at 10 μM
T1 construct: crude synaptic membrane preparations from rat cerebral cortex, striatum and hippocampus; from tissue; host or cells: rat cerebral cortex, striatum and hippocampus (crude synaptic membranes, P2 fraction)
Description: α4β2 Nicotinic Acetylcholine Receptor (α4β2 nAChR)
In Vitro Protocol for Determination of α4β2 nAChR Binding Potencies of Ligands
Binding of ^3H-cytisine to neuronal nicotinic acetylcholine receptors was accomplished using crude synaptic membrane preparations from rat cerebral cortex, striatum and hippocampus. Either fresh or frozen membranes were homogenized in ˜50 volumes of 10 mM HEPES (N-2-Hydroxyethylpiperazine-N′-2-Ethanesulfonic acid, pH 7.4) and centrifuged at 42,000×g. The P2 fraction was resuspended in ˜40 volumes of 10 mM HEPES and centrifuged at 42,000×g. This step was repeated and the P2fraction was resuspended in 25 volumes (e.g. 1 g of original into 25 mL) of a medium comprising Na^+-HEPES buffer (10 mM, pH 7.4), 5 mM MgCl2, 0.01% powdered bovine serum albumin (BSA) and 100 mM NaCl. To initiate the binding reaction, test compound (100 μL), Na-HEPES buffered incubation medium (400 μL), ^3H-cytisine (250 μL) and the suspension of biological membranes (250 μL) were mixed, and then the samples were incubated at 23° C. for 40 minutes. The binding reaction was terminated by filtration using a Brandel Cell Harvester and the amount of bound ^3H-cytisine for each sample was quantitated using a Wallac LKB 1205 Betaplate liquid scintillation counter. All test compounds were screened at 10 μM in quadruplicate. Nonspecific binding was determined using 10 μM (+)-epibatidine to block all binding of ^3H-cytisine to the α4β2 nAChR. The activity of each test compound was calculated as follows. After correcting for nonspecific binding, the percent inhibition of specific binding (total binding minus nonspecific) was calculated. Each active compound was further tested at five concentrations to generate a concentration-inhibition curve. The IC50 values were determined using the Prism (GraphPad Software) nonlinear regression program.

[2] = target: T2, α7 nAChR (Rattus norvegicus, UniProt Q05941); experiment: Binding of 3H-MLA to α7 nAChR, crude synaptic membranes; conditions: read-out: α7 (% Inh @ 10 uM)
T2 construct: crude synaptic membrane preparations from rat cerebral cortex, striatum and hippocampus; from tissue; host or cells: rat cerebral cortex, striatum and hippocampus (crude synaptic membranes, P2 fraction)
Description: α7 Nicotinic Acetylcholine Receptor (α7nAChR)
In Vitro Protocol for Determination of α7nAChR Binding Potencies of Ligands
Binding of ^3H-MLA (methylcaconitine) to neuronal nicotinic acetylcholine receptors was accomplished using crude synaptic membrane preparations from rat cerebral cortex, striatum and hippocampus. Either fresh or frozen membranes were homogenized in ˜50 volumes of 10 mM HEPES (N-2-Hydroxyethylpiperazine-N′-2-Ethanesulfonic acid, pH 7.4) and centrifuged at 42,000×g. The P2 fraction was resuspended in ˜40 volumes of 10 mM HEPES and centrifuged at 42,000×g. This step was repeated and the P2 fraction was resuspended in 25 volumes (e.g. 1 g of original into 25 mL) of a medium comprised of Na^+-HEPES buffer (10 mM, pH 7.4), 5 mM MgCl2, 0.01% powdered bovine serum albumin (BSA), and 100 mM NaCl. To initiate the binding reaction, test compound (100 μL), Na-HEPES buffered incubation medium (400 μL), ^3H-MLA (250 μL) and the suspension of biological membranes (250 μL) were mixed, and then the samples were incubated at 23° C. for 40 minutes., The binding reaction was terminated by filtration using a Brandel Cell Harvester, and the amount of bound ^3H-MLA for each sample was quantitated using a Wallac LKB 1205 Betaplate liquid scintillation counter. All test compounds were screened at 10 μM in quadruplicate. Nonspecific binding was determined using 10 μM MLA to block all binding of ^3H-MLA to the α7 nAChR. The activity of each test compound was calculated as follows. After correcting for nonspecific binding, the percent inhibition of specific binding (total binding minus nonspecific) was calculated. Each active compound was further tested at five concentrations to generate a concentration-inhibition curve. The IC50 values were determined using the Prism (GraphPad Software) nonlinear regression program.

[3] = 3H-cytisine, rat cerebral cortex, striatum and hippocampus membranes, IC50 from five concentrations, read-out: α4β2

T1 sequence (P09483 31-630): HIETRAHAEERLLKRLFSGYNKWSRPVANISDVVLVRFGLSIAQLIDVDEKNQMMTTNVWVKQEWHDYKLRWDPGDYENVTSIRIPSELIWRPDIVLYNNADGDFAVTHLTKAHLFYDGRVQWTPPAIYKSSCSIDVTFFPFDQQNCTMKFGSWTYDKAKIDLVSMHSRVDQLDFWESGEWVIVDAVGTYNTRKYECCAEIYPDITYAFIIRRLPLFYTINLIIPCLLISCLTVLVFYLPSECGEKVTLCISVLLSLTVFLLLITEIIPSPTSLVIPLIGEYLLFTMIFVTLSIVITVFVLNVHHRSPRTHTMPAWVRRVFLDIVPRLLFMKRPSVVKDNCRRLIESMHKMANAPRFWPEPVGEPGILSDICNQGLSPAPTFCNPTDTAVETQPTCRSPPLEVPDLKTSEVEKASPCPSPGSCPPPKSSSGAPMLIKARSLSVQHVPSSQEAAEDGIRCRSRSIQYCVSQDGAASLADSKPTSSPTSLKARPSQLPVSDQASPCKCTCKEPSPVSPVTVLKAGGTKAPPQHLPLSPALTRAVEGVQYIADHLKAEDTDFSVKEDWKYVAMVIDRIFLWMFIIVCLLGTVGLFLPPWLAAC
T1 sequence (P12390 25-500): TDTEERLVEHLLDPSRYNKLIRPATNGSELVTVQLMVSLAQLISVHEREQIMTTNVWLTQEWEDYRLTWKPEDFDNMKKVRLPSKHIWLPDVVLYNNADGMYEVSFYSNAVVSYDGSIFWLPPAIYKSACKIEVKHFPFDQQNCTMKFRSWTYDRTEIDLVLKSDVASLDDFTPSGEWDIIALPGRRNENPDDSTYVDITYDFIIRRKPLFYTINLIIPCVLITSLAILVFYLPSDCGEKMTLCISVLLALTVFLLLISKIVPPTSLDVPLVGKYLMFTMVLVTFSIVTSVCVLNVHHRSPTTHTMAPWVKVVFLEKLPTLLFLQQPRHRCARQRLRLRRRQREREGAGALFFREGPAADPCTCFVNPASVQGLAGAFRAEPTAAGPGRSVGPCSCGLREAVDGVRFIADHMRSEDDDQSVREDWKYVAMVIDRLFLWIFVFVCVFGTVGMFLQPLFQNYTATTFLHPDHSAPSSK
T2 sequence (Q05941 23-502): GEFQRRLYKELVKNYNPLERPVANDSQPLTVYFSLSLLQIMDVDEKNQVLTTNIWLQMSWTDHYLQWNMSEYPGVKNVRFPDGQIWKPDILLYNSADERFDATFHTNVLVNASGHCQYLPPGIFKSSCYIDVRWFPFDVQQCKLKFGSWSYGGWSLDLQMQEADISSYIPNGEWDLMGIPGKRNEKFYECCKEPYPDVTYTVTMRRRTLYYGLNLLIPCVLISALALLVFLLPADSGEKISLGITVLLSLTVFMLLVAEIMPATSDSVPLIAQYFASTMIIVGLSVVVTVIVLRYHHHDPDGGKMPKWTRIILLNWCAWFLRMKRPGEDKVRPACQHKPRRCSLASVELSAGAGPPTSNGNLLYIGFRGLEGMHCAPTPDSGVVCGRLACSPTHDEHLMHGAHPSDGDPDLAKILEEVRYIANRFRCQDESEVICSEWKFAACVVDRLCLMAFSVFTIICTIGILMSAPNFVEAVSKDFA

Compound | inhibition at 10 µM [1] [%] | inhibition at 10 µM [2] [%] | IC50 [1, 3] [nM] | IC50 [1] [nM]
c1cncc(OC2CNC2)c1 [Example 1, 3-(3-Azetidinyloxy)-pyridine] | 46 | 21 |  | 
c1cncc(OC2CCNC2)c1 (stereo not drawn) [Example 2, 3-(3-Pyrrolidinyloxy)-pyridine] |  | -15 | 209 | 
c1cncc(O[C@H]2CCNC2)c1 [Example 3, 3-(3-(S)-Pyrrolidinyloxy)-pyridine] |  | 5 | 449 | 
c1cncc(O[C@@H]2CCNC2)c1 [Example 4, 3-(3-(R)-Pyrrolidinyloxy)-pyridine] |  | 11 | 45 | 
CN1CC[C@@H](Oc2cccnc2)C1 [Example 5, 3-(1-Methyl-3-(R)-pyrrolidinyloxy)-pyridine] |  | 20 | 544 | 
Clc1ccc(O[C@@H]2CCNC2)cn1 [Example 6, 2-Chloro-5-(3-(R)-pyrrolidinyloxy)-pyridine] |  | 20 |  | 466
CN1CCC(Oc2cccnc2)C1 (stereo not drawn) [Example 7, 3-(1-Methyl-3-pyrrolidinyloxy)-pyridine] |  | 22 | 92 | 
CCN1CCC(Oc2cccnc2)C1 (stereo not drawn) [Example 8, 3-(1-Ethyl-3-pyrrolidinyloxy)-pyridine] | 71 | 18 |  | 
CC(C)N1CCC(Oc2cccnc2)C1 (stereo not drawn) [Example 9, 3-(1-Isopropyl-3-pyrrolidinyloxy)-pyridine] | 30 | 19 |  | 
c1cncc(OC2CCCNC2)c1 (stereo not drawn) [Example 10, 3-(3-Piperidinyloxy)-pyridine] |  | 19 | 204 | 
c1cncc(O[C@H]2CCCNC2)c1 [Example 11, 3-(3-(S)-Piperidinyloxy)-pyridine] |  | 86 |  | 673
Clc1ncc(O[C@@H]2CCNC2)cc1Br [Example 12, 2-Chloro-3-bromo-5-(3-(R)-pyrrolidinyloxy)-pyridine] |  | 11 | 94 | 
N#Cc1ccc(-c2cc(O[C@@H]3CCNC3)cnc2Cl)cc1 [Example 13, 2-Chloro-3-(4-cyano)phenyl-5-(3-(R)-pyrrolidinyloxy)-pyridine] |  | 26 | 22 | 
COc1cccc(-c2cc(O[C@@H]3CCNC3)cnc2Cl)c1 [Example 14, 2-Chloro-3-(3-methoxy)phenyl-5-(3-(R)-pyrrolidinyloxy)-pyridine] |  | 33 | 58 | 
C[Si](C)(C)C#Cc1ccc(-c2cc(O[C@@H]3CCNC3)cnc2Cl)cc1 [Example 15, 2-Chloro-3-(4-trimethylsilylethynyl)phenyl-5-(3-(R)-pyrrolidinyloxy)-pyridine] |  | 22 |  | 25
